Laboratory results reported in patent US4218442A, “1-Epi-fortimicin A and derivatives” (Abbott Laboratories, priority 1979, dated 1980).
Where a name gives a salt, the structure may show the parent alone. Read-outs that look alike come from different tables or passages of the source.

What was measured:
Assay in all cases: MIC, two-fold agar dilution, Mueller-Hinton agar
Assay type in all cases: cell-based
[1] = test system: Escherichia coli 76-2; details: read-out: minimum inhibitory concentration (MIC)
Protocol: (§1) The in vitro antibiotic activity is determined by a two-fold dilution test using Mueller-Hinton agar, 10 ml per Petri plate. The inoculum of approximately 1×10^5 of the indicated test organism is delivered by the Steer's replicator. The test is incubated at 37° C. for 24 hours.

[2] = test system: Shigella sonnei 9290; details: 37° C., 24 hours, read-out: minimum inhibitory concentration (MIC)
Protocol: as §1

[3] = test system: Enterobacter aerogenes 13048; details: read-out: minimum inhibitory concentration (MIC)
Protocol: as §1

[4] = test system: Proteus mirabilis Fin #9; details: read-out: minimum inhibitory concentration (MIC)
Protocol: as §1

[5] = test system: Serratia marcescens 4003; details: read-out: minimum inhibitory concentration (MIC)
Protocol: as §1

[6] = test system: Escherichia coli BL 3676(RES); details: read-out: minimum inhibitory concentration (MIC)
Protocol: as §1

[7] = test system: Escherichia coli JUHL; details: read-out: minimum inhibitory concentration (MIC)
Protocol: as §1

[8] = test system: Providencia stuartii 1577; details: read-out: minimum inhibitory concentration (MIC)
Protocol: as §1

[9] = test system: Salmonella typhimurium Ed. #9; details: Salmonella enterica, read-out: minimum inhibitory concentration (MIC)
Protocol: as §1

[10] = test system: Staphylococcus aureus Smith; details: read-out: minimum inhibitory concentration (MIC)
Protocol: as §1

[11] = test system: Pseudomonas aeruginosa BMH #10; details: read-out: minimum inhibitory concentration (MIC)
Protocol: as §1

[12] = test system: Proteus vulgaris JJ; details: read-out: minimum inhibitory concentration (MIC)
Protocol: as §1

[13] = test system: Streptococcus faecalis 10541; details: read-out: minimum inhibitory concentration (MIC)
Protocol: as §1

[14] = test system: Pseudomonas aeruginosa KY 8516; details: read-out: minimum inhibitory concentration (MIC)
Protocol: as §1

[15] = test system: Pseudomonas aeruginosa KY 8512; details: read-out: minimum inhibitory concentration (MIC)
Protocol: as §1

[16] = test system: Klebsiella pneumoniae KY 4262; details: read-out: minimum inhibitory concentration (MIC)
Protocol: as §1

[17] = test system: Pseudomonas aeruginosa 27853; details: read-out: minimum inhibitory concentration (MIC)
Protocol: as §1

[18] = test system: Pseudomonas aeruginosa 209; details: read-out: minimum inhibitory concentration (MIC)
Protocol: as §1

[19] = test system: Klebsiella pneumoniae 10031; details: read-out: minimum inhibitory concentration (MIC)
Protocol: as §1

[20] = test system: Proteus rettgeri U-6333; details: Providencia rettgeri, read-out: minimum inhibitory concentration (MIC)
Protocol: as §1

Structure (SMILES): CO[C@H]1[C@@H](O)[C@@H](N)[C@@H](O[C@H]2O[C@H]([C@H](C)N)CC[C@H]2N)[C@H](O)[C@@H]1N(C)C(=O)CN [Ex. 3, 1-Epi-fortimicin A tetrahydrochloride]
- MIC ([1]; Escherichia coli, 762, 24 h): 6.2 µg/mL
- MIC [2]: 12.5 µg/mL
- MIC ([3]; Klebsiella aerogenes, 13048, 24 h): 6.2 µg/mL
- MIC ([4]; Proteus mirabilis, 24 h): 12.5 µg/mL
- MIC ([5]; Serratia marcescens, 4003, 24 h): 3.1 µg/mL
- MIC ([6]; Escherichia coli, 24 h): 50 µg/mL
- MIC ([7]; Escherichia coli, 24 h): 12.5 µg/mL
- MIC ([8]; Providencia stuartii, 1577, 24 h): 3.1 µg/mL
- MIC ([9]; TYPHIMURIUM, 24 h): 3.1 µg/mL
- MIC ([10]; Staphylococcus aureus, 24 h): 1.56 µg/mL
- MIC ([11]; Pseudomonas aeruginosa, 24 h): 0.78 µg/mL
- MIC ([12]; Proteus vulgaris, 24 h): 12.5 µg/mL
- MIC ([13]; Enterococcus faecalis, 10541, 24 h): 100 µg/mL
- MIC ([14]; Pseudomonas aeruginosa, KY8516, 24 h): 100 µg/mL
- MIC ([15]; Pseudomonas aeruginosa, KY8512, 24 h): 25 µg/mL
- MIC ([16]; Klebsiella pneumoniae, KY4262, 24 h): 6.2 µg/mL
- MIC ([17]; Pseudomonas aeruginosa, 27853, 24 h): 50 µg/mL
- MIC ([18]; Pseudomonas aeruginosa, 209, 24 h): 100 µg/mL
- MIC ([19]; Klebsiella pneumoniae, 10031, 24 h): 3.1 µg/mL
- MIC ([20]; U6333, 24 h): 3.1 µg/mL

Structure (SMILES): C[C@H](N)[C@@H]1CC[C@@H](N)[C@@H](O[C@@H]2[C@H](N)[C@H](O)[C@H](O)[C@@H](N(C)C(=O)CN)[C@H]2O)O1 [Ex. 13, 1-Epi-3-O-demethylfortimicin A tetrahydrochloride]
- MIC ([1]; 762, Escherichia coli 76-2, 37° C., 24 hours): 3.1 µg/mL
- MIC [2]: 12.5 µg/mL
- MIC ([3]; Klebsiella aerogenes, Enterobacter aerogenes 13048, 37° C., 24 hours): 3.1 µg/mL
- MIC ([4]; Proteus mirabilis Fin #9, 37° C., 24 hours): 6.2 µg/mL
- MIC ([5]; Serratia marcescens 4003, 37° C., 24 hours): 3.1 µg/mL
- MIC ([6]; Escherichia coli BL 3676(RES), 37° C., 24 hours): 25 µg/mL
- MIC ([7]; Escherichia coli JUHL, 37° C., 24 hours): 6.2 µg/mL
- MIC ([8]; Providencia stuartii 1577, 37° C., 24 hours): 6.2 µg/mL
- MIC ([9]; Salmonella typhimurium Ed. #9, 37° C., 24 hours): 3.1 µg/mL
- MIC ([10]; Staphylococcus aureus Smith, 37° C., 24 hours): 0.78 µg/mL
- MIC ([11]; Pseudomonas aeruginosa BMH #10, 37° C., 24 hours): 0.78 µg/mL
- MIC ([12]; Proteus vulgaris JJ, 37° C., 24 hours): 3.1 µg/mL
- MIC ([13]; Enterococcus faecalis, Streptococcus faecalis 10541, 37° C., 24 hours): 50 µg/mL
- MIC ([14]; KY8516, Pseudomonas aeruginosa KY 8516, 37° C., 24 hours): 25 µg/mL
- MIC ([15]; KY8512, Pseudomonas aeruginosa KY 8512, 37° C., 24 hours): 6.2 µg/mL
- MIC ([16]; KY4262, Klebsiella pneumoniae KY 4262, 37° C., 24 hours): 6.2 µg/mL
- MIC ([17]; Pseudomonas aeruginosa 27853, 37° C., 24 hours): 6.2 µg/mL
- MIC ([18]; Pseudomonas aeruginosa 209, 37° C., 24 hours): 100 µg/mL
- MIC ([19]; Klebsiella pneumoniae 10031, 37° C., 24 hours): 3.1 µg/mL
- MIC ([20]; U6333, Proteus rettgeri U-6333, 37° C., 24 hours): 3.1 µg/mL
